In experiment [1] the test system is Aβ deposited in the brains of Alzheimer's disease patients. As to the kind of experiment: Brain tissue assay: solubilisation of Aβ deposits from post-mortem AD brain (Western blot). Further details: species or system human. The following applies: post-mortem brain homogenate in PBS, 24 h at room temperature, Western blot (FIG. 7); compound concentrations as in Table 1. In general terms: Immunoblotting shows a protein as a band on a membrane.
Procedure: Post-mortem tissues, stored at −80° C., were obtained from the NH&MRC-supported Brain Bank at the University of Melbourne, together with accompanying histopathological and clinical data. AD was assessed according to CERAD criteria (Mirra et al, 1991).
Compounds were dissolved in DMSO and diluted in a PBS mixture. Insoluble material was removed.
The cortical meninges were removed and gray matter (0.5 g) was homogenised using a DIAX 900 homogeniser (Heidolph & Co, Kelheim, Germany) for 3×30 s periods at full speed, with a 30 s rest between strokes, in 3 ml of ice-cold phosphate-buffered saline (PBS), pH 7.4, containing a mixture of protease inhibitors (BioRad, Hercules, Calif.), but without ethylene diamine tetraacetic acid (EDTA), or in the presence of test compounds or metal ions prepared in PBS. The homogenate samples were incubated for 24 h at room temperature. To obtain the PBS-extractable fraction, the homogenate was centrifuged at 100,000×g for 30 min, the supernatant removed, and divided into 1 ml aliquots. Protein in a 1 ml supernatant sample was precipitated using 1:5 ice-cold 10% trichloracetic acid (TCA), and pelleted by centrifugation at 10,000×g for 20 mins. The pellet was prepared for PAGE by boiling for 10 min in Tris-tricine SDS-sample buffer containing 8% SDS, 10% mercaptoethanol and 8M urea. Total Aβ in the cortical samples was obtained by homogenizing in 1 ml PBS and boiling in sample buffer as described above.
Tris-tricine PAGE was performed by loading samples on to 10-20% gradient gels (Novex, San Diego, Calif.), followed by transfer on to 0.2 mm nitrocellulose membrane (BioRad, Hercules, Calif.). The Aβ was detected using the following monoclonal antibodies: W02, which detects Aβ40 and Aβ42 at an epitope between residues 5 and 8; G210, which is specific for Aβ species which terminate at carboxyl residue 40; or G211, which is specific for Aβ species which terminate at carboxyl residue 42 (Ida et al, 1996), in conjunction with horseradish peroxidase(HRP)-conjugated rabbit anti-mouse IgG (Dako, Denmark), and visualised using chemiluminescence (ECL, Amersham Life Science, UK). Each gel included two or more lanes containing known quantities of synthetic Aβ (Keck Laboratory, Yale University New Haven, Conn.) as reference standards. Blot films were scanned using a Relisys scanner with transparency adapter (Tech Information Systems, Taiwan) and densitometry performed using Image 1.6 software (NIH, Bethesda, Mass.). All samples were analysed at least twice, and gel loadings and dilutions adjusted to fit within the quantifiable region of the standard curve.

Experiment [2] relates to cerebral cortical neuron cultures. As to the kind of experiment: LDH assay for cell death: inhibition of Aβ1-42 neurotoxicity in vitro. It is filed as cell-based. The following applies: treatment alone; LDH release compared to untreated control cultures; 5 days; KJB030 dialysed, at most 20 μM; Aβ1-42 20 μM. The method, then:
Compound KJB030 was dissolved in chelex 100-treated double distilled H2O (CH100-dH2O) at a concentration of 200 μM. Aβ1-42 was dissolved in either 200 μm KJB030 solution or in CH100-dH2O. Both solutions contained 200 μM Aβ1-42. The Aβ1-42 solutions were incubated at ambient temperature (˜20-24° C.) for 3 days. The solutions were then brought to a physiological state by adding 10× phosphate buffered saline (PBS), pH 7.4, thus bringing samples to 1×PBS. Samples were then incubated at 37° C. for 24 hr to induce aggregation of Aβ1-42. Samples were subsequently dialysed in microdialysis cups (3500 Mr cut-off) placed in 5 L PBS for 24 hr, in order to remove some of the excess KJB030 without loss of Aβ1-42.
Dialyzed samples were added to six day old cerebral cortical neuron cultures growing in Neurobasal medium with B27 supplements but without anti-oxidants (Gibco). Samples were diluted into the culture medium to a final concentration of 20 μM Aβ1-42. […]
Determination of cell death was performed using the lactate dehydrogenase (LDH) assay kit (Boehringer Mannheim). […] Culture medium was mixed with the reagents from the LDH kit as per the manufacturer's instructions and the level of LDH measured colourimetrically on a spectrophotometric 96 well plate reader at 490 nm.
A general note: LDH leaks from cells whose membrane has failed.

The target of experiment [3] is T1, Aβ1-28 (Homo sapiens, UniProt P05067).
T1 construct: adding two equivalents of Cu^2+ to Aβ1-28
T1 sequence (P05067 672-699): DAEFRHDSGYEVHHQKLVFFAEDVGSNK
The experiment in a line: 1H NMR reaction of compound with Aβ1-28. It is filed as binding. The following applies: ~1 equivalent, 24 hrs in DMSO; 600 MHz 1H NMR, pH 6.9, 271 K. The method, then: 1.8 mgs of Aβ1-28 was dissolved in 5 mls DMSO was mixed with 0.33 mgs of compound KJB001 (˜1 equivalent) dissolved in 0.3 mls DMSO. The mixture was allowed to stand for 24 hrs before being freeze-dried. The resulting blue powder was dissolved in 550 μl of an aqueous solution containing 100 mM NaCl, 50 mM phosphate buffer, pH 6.9. A solution of 1.8 mgs Aβ1-28 dissolved in 550 μl of the same solution was used as a control.

`CC(C)(C)c1cc(C=N[C@H]2CCCC[C@@H]2N=Cc2cc(C(C)(C)C)cc(C(C)(C)C)c2[O-])c([O-])c(C(C)(C)C)c1.[Cl-].[Mn+3]` [KJB002, (S,S)-(+)-N-N′-bis(3,5-di-tert-butylsalicylidene)-1-2-cyclohexane diamino manganese(III) chloride]: the “ability to solubilise Aβ deposited in the brains of Alzheimer's disease patients” value (“ability to solubilise Aβ deposited” below) in experiment [1] is “good activity”.
Turning to “Aβ1-42: β-amyloid peptide 1-42, the neurotoxic agent in the LDH assay”, the “% cell death” value in experiment [2] is recorded as 22 ± 3.5%.
On to `[Mn+2].c1ccc2c(c1)-c1nc3nc(nc4[n-]c(nc5[n-]c(nc-2n1)c1ccccc51)c1ccccc41)-c1ccccc1-3` [KJB006, Manganese(II) phthalocyanine], for which, in experiment [1], the “ability to solubilise Aβ deposited” value was “good activity”.
Turning to `[Co+2].c1ccc2c(c1)-c1nc-2nc2[n-]c(nc3nc(nc4[n-]c(n1)c1ccccc41)-c1ccccc1-3)c1ccccc21` [KJB001, Co(II) phthalocyanine β-form], the “reaction with His6, His13, His14 of Aβ1-28 (shift of histidine C2H peaks)” value in experiment [3] is given as “had reacted with these residues”. Further, the “ability to solubilise Aβ deposited” value in experiment [1] was “particularly strong solubilising activity”.
In the case of `C1=Cc2nc1c(-c1ccccc1)c1ccc([nH]1)c(-c1ccccc1)c1nc(c(-c3ccccc3)c3ccc([nH]3)c2-c2ccccc2)C=C1.[Cl-].[Cl-].[Cl-].[Mn+3]` [KJB007, 5,10,15,20-tetraphenyl-21H,23H-porphine manganese(III) chloride], the “ability to solubilise Aβ deposited” value in experiment [1] was “good activity”.

Values taken from patent US7704987B1, “β-amyloid peptide inhibitors” (Prana Biotechnology Ltd, priority 1999, dated 2010).
